Source: patent US10300070B2, “Metabolically-activated drug conjugates to overcome resistance in cancer therapy” (The Brigham and Women's Hospital, Inc., priority 2014, dated 2019)

Test system: MDA-MB-231 cells
Assay: Single cell, real-time assessment of mitochondrial ROS (MitoSox)
Format: cell-based
Conditions: docetaxel 50 nM
Experimental: Single cell analysis was performed as follows: Mitosox Red (Invitrogen, Carlsbad Calif.) was incubated with live parent cells for 30 minutes (5 μM), washed and recovered in phenol red-free DMEM with 2% FBS and treated with docetaxel (50 nM). Equivalent exposure times of immunofluorescent microscopy were used at each interval which was originally set at time 0 against an unstained control cell population. Images were captured by a NIKON Eclipse TI-U microscope with a 20× ELDW or 10× or 40× Plan-Apo objective lens (Nikon, Melville N.Y.) and NIS Elements Viewer version 3.22 (Nikon, Melville N.Y.) imaging software. A negative control (non-transfected) cell subset was used to normalize background and autofluorescence following docetaxel treatment. Individual cells were tracked over time and indications of cell death were noted using a 2 TdT-Fluor In Situ apoptosis detection kit (Trevigen Gaithersburg Md.). Cells were plotted as a function of apoptosis induction (or loss of adherence to culture dish indicating cell death) and changes in Mitosox fluorescence over time as shown in main figures.

## CC(=O)O[C@@]12CO[C@@H]1C[C@H](O)[C@@]1(C)C(=O)[C@H](O)C3=C(C)[C@@H](OC(=O)[C@H](O)[C@@H](NC(=O)OC(C)(C)C)c4ccccc4)C[C@@](O)([C@@H](OC(=O)c4ccccc4)[C@H]21)C3(C)C [docetaxel]
  time of mitochondrial ROS burst in cells which survive: 4 to 8 h
